Data taken from patent US20090054493A1, “THIAZOLE DERIVATIVES AS PPAR DELTA LIGANDS AND THEIR MANUFACTURING PROCESS” (priority 2005, published 2009).

Assays:
Assay type in all cases: cell-based
[1] = MTT assay, cytotoxicity; details: African green monkey, CV-1 cells, read-out: LC50 Cytotoxicity
Protocol: The compounds of Examples 47-97 according to the present invention were tested for cytotoxicity using a MTT assay. MTT is a water-soluble yellow substance, but if it is introduced into living cells, it will be degenerated into a water-insoluble purple crystal due to dehydrogenase contained in mitochondria. If this substance is dissolved in dimethylsulfoxide and then measured for absorbance at 550 nm, cytotoxicity can be assayed. The test method is as follows.
CV-1 cells were first inoculated onto a 96-well plate at a concentration of 5,000 cells/well. The inoculated cells were cultured in a 5% carbon dioxide-containing humidified incubator at 37° C. for 24 hours, and then treated with the inventive compounds at various concentrations. After 24 hours of culture, a MTT reagent was added to the cultured cells. After 15 minutes of culture, the resulting purple crystal was dissolved in dimethylsulfoxide and then measured for absorbance using a microplate reader. From the measured absorbance, cytotoxicity was assayed.

[2] = target: T1, PPARα (Homo sapiens, UniProt Q07869); test: Transfection assay (luciferase reporter) in CV-1 cells, PPARα; details: full-length PPAR plasmid, luciferase normalized with β-galactosidase
T1 construct: full-length PPARs plasmid DNA; expressed in transfected cells; host or cells: CV-1 cells
T1 sequence (Q07869 1-468): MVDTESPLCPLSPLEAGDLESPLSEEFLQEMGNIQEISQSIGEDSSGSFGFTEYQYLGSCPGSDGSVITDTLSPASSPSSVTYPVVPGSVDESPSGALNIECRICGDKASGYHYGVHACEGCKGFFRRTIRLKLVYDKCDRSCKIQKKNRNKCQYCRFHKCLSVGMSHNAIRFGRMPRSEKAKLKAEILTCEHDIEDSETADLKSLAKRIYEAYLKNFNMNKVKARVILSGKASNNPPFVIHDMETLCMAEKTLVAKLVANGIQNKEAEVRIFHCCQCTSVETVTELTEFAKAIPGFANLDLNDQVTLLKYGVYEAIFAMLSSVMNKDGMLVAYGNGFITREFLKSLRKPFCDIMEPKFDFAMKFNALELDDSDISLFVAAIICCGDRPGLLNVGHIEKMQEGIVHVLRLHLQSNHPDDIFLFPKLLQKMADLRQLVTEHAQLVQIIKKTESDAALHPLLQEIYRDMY
Protocol: (§1) The compounds prepared in Examples were tested for PPARδ activity by a transfection assay. In addition, the compounds were tested for selectivity for PPARα and PPARγ, the subtypes of PPARs, and also tested for toxicity by a MTT assay.
(§2) A transfection assay was performed using CV-1 cells. The culture of the cells was performed using a DMEM medium (10% FBS, DBS (delipidated) and 1% penicillin/streptomycin) on a 96-well plate in a 5% carbon dioxide-containing incubator at 37° C. The test was performed in four steps consisting of cell inoculation, transfection, treatment of the compounds, and analysis of results. Specifically, CV-1 cells were inoculated onto a 96-well plate at a concentration of 5,000 cells/well, and after 24 hours, the cells were transfected. In the cell transfection, full-length PPARs plasmid DNA, reporter DNA that has luciferase activity and thus allows the identification of PPARs, and β-galactosidase DNA that provides the information of transfection efficiency, were used as transfection reagents. Each of the compounds developed in the present invention was dissolved in dimethylsulfoxide (DMSO) and transfected into the cells at various concentrations using media. The cells were cultured in an incubator for 24 and then lysed with lysis buffer. The lysed cells were measured for luciferase and β-galactosidase activities using a luminometer and a microplate reader. The measured luciferase values were normalized with the β-galactosidase values and graphed. From the graph, EC50 values were determined.

[3] = target: T2, PPARγ (Homo sapiens, UniProt P37231); test: Transfection assay (luciferase reporter) in CV-1 cells, PPARγ; details: full-length PPAR plasmid, luciferase normalized with β-galactosidase
T2 construct: full-length PPARs plasmid DNA; expressed in transfected cells; host or cells: CV-1 cells
T2 sequence (P37231 1-505): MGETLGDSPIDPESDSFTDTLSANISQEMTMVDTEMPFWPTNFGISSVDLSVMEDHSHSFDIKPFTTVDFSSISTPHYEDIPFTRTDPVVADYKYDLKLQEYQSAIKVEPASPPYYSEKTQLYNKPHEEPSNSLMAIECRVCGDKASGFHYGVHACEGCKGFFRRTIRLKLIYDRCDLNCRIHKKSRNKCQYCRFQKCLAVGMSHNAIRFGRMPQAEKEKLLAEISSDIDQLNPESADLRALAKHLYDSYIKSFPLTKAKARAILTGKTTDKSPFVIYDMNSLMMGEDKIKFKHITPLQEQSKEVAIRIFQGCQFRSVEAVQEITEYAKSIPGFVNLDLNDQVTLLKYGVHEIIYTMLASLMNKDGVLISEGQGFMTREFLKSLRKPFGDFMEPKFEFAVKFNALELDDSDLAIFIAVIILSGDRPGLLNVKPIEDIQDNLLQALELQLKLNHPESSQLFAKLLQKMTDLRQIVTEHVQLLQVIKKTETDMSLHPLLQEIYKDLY
Protocol: as §1
as §2, with “The test was performed in four steps consisting of cell inoculation, transfection, treatment of the compounds, and analysis of results.” left out

[4] = target: T3, PPARδ (Homo sapiens, UniProt Q03181); test: Transfection assay (luciferase reporter) in CV-1 cells, PPARδ; design: full-length PPARs plasmid DNA; expressed in transfected cells; host or cells: CV-1 cells; details: full-length PPAR plasmid, luciferase normalized with β-galactosidase
T3 sequence (Q03181 1-441): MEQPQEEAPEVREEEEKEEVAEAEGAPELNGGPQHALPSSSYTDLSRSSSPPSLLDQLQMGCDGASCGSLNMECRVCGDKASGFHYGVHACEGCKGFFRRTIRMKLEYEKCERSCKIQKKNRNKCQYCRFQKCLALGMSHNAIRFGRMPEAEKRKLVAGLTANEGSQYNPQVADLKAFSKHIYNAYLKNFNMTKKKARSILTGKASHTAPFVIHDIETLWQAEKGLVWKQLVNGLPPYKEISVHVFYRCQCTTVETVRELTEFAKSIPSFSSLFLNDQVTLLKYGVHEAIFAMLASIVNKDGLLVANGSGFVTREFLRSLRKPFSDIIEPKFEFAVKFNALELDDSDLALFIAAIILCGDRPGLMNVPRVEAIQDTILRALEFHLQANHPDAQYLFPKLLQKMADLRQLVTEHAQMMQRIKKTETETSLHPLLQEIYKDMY
Protocol: as §1
as §2, with “The test was performed in four steps consisting of cell inoculation, transfection, treatment of the compounds, and analysis of results.” left out

Compound	CC50 at 24 h [1]	EC50 PPARα [2]	EC50 PPARγ [3]	EC50 [4]	EC50 [2]	EC50 [3]
Cc1cc(SC(CCCc2ccccc2)c2sc(-c3ccc(C(F)(F)F)cc3)nc2C)ccc1OCC(=O)O (stereo not drawn) [Example 70, 2-[4-[1-[2-[4-(trifluoromethyl)phenyl]-4-methylthiazol-5-yl]-4-phenylbutylthio]-2-methylphenoxy]acetic acid]	91000 nM	ia	ia	6.1 nM		
Cc1cc(SC(CCc2ccccc2)c2sc(-c3ccc(C(F)(F)F)cc3)nc2C)ccc1OCC(=O)O (stereo not drawn) [Example 68, 2-[4-[1-[2-[4-(trifluoromethyl)phenyl]-4-methylthiazol-5-yl]-3-phenylpropylthio]-2-methylphenoxy]acetic acid]	> 100000 nM	ia	ia	2.7 nM		
Cc1cc(SC(CCCCCCCc2ccccc2)c2sc(-c3ccc(C(F)(F)F)cc3)nc2C)ccc1OCC(=O)O (stereo not drawn) [Example 73, 2-[4-[1-[2-[4-(trifluoromethyl)phenyl]-4-methylthiazol-5-yl]-8-phenyloctylthio]-2-methylphenoxy]acetic acid]	94000 nM	ia	ia	57.2 nM		
Cc1cc(SC(Cc2c(Cl)cccc2Cl)c2sc(-c3ccc(C(F)(F)F)cc3)nc2C)ccc1OCC(=O)O (stereo not drawn) [Example 84, 2-[4-[2-(2,6-dichlorophenyl)-1-[2-[4-(trifluoromethyl)phenyl]-4-methylthiazol-5-yl]ethylthio]-2-methylphenoxy]acetic acid]	> 100000 nM	ia	ia	2.1 nM		
Cc1cc(SC(CCCCCCCCCCc2ccccc2)c2sc(-c3ccc(C(F)(F)F)cc3)nc2C)ccc1OCC(=O)O (stereo not drawn) [Example 74, 2-[4-[1-[2-[4-(trifluoromethyl)phenyl]-4-methylthiazol-5-yl]-11-phenylundecylthio]-2-methylphenoxy]acetic acid]	> 100000 nM	ia	ia	132 nM		
Cc1cc(SC(Cc2ccc(C#N)cc2)c2sc(-c3ccc(C(F)(F)F)cc3)nc2C)ccc1OCC(=O)O (stereo not drawn) [Example 76, 2-[4-[2-(4-cyanophenyl)-1-[2-[4-(trifluoromethyl)phenyl]-4-methylthiazol-5-yl]ethylthio]-2-methylphenoxy]acetic acid]	> 100000 nM	ia	ia	22.1 nM		
CCOC(=O)COc1ccc(SC(Cc2c(F)cccc2Cl)c2sc(-c3ccc(C(F)(F)F)cc3)nc2C)cc1C (stereo not drawn) [Example 47]	> 100000 nM	ia	ia	6.5 nM		
Cc1cc(SC(Cc2c(Cl)cccc2Cl)c2sc(-c3ccc(C(F)(F)F)c(F)c3)nc2C)ccc1OCC(=O)O (stereo not drawn) [Example 95, 2-[4-[2-(2,6-dichlorophenyl)-1-[2-[3-fluoro-4-(trifluoromethyl)phenyl]-4-methylthiazol-5-yl]ethylthio]-2-methylphenoxy]acetic acid]	> 10000 nM	ia	ia	2.3 nM		
Cc1cc(SC(Cc2c(F)cccc2Cl)c2sc(-c3ccc(C(F)(F)F)c(F)c3)nc2C)ccc1OCC(=O)O (stereo not drawn) [Example 91, 2-[4-[2-(2-chloro-6-fluorophenyl)-1-[2-[3-fluoro-4-(trifluoromethyl)phenyl]-4-methylthiazol-5-yl]ethylthio]-2-methylphenoxy]acetic acid]	> 10000 nM	ia	ia	3.9 nM		
Cc1cc(SC(Cc2c(F)cccc2C(F)(F)F)c2sc(-c3ccc(C(F)(F)F)c(F)c3)nc2C)ccc1OCC(=O)O (stereo not drawn) [Example 93, 2-[4-[1-[2-[3-fluoro-4-(trifluoromethyl)phenyl]-4-methylthiazol-5-yl]-2-(2-fluoro-6-(trifluoromethyl)phenyl)ethylthio]-2-methylphenoxy]acetic acid]	> 10000 nM	ia	ia	2.6 nM		
Cc1cc(SC(Cc2cc(F)ccc2Cl)c2sc(-c3ccc(C(F)(F)F)cc3)nc2C)ccc1OCC(=O)O (stereo not drawn) [Example 86, 2-[4-[2-(2-chloro-5-fluorophenyl)-1-[2-[4-(trifluoromethyl)phenyl]-4-methylthiazol-5-yl]ethylthio]-2-methylphenoxy]acetic acid]	> 100000 nM	ia	ia	8.7 nM		
Cc1cc(SC(Cc2c(F)cccc2F)c2sc(-c3ccc(C(F)(F)F)cc3)nc2C)ccc1OCC(=O)O (stereo not drawn) [Example 83, 2-[4-[1-[2-[4-(trifluoromethyl)phenyl]-4-methylthiazol-5-yl]-2-(2,6-difluorophenyl)ethylthio]-2-methylphenoxy]acetic acid]	> 100000 nM			2.6 nM	> 100000 nM	> 10000 nM
